US20180064808A1, “COMBINATION THERAPY OF BISPECIFIC ANTIBODIES SPECIFIC FOR FAP AND DR5 AND CHEMOTHERAPEUTIC AGENTS” (Hoffmann-La Roche Inc., priority 2014, published 2018)
pIC50: −log10 of the molar value. Like-named read-outs stand apart in the source and are kept apart here.

How the values were obtained:
FAP = assay: Binding mode, specificity and species cross-reactivity of FAP binder 28H1
HT29 = assay: Combination screen CRC cell lines (CellTiter-Glo); format: cell-based; conditions: for pIC50: 3 days; for % max. inhibition (mono): first figure of mono/combo; for Fold change IC50 (DR5 ab mono vs combo) / % max. inhibition (combo): n.s. = not significant; for % max. inhibition (combo): second figure of mono/combo
Method: (§1) A panel of CRC and PDAC cell lines was assessed and combination partners of potential clinical relevance for the respective tumor indications were used for evaluation of combination effects (CRC: irinotecan, oxaliplatin, 5-FU, MDM2 inhibitor (RG7388), Bcl-2 inhibitor (ABT199); PDAC: Abraxane, Paclitaxel, Gemcitabine, Doxorubicin, MDM2i (RG7388), Bc12i (ABT199), Bortezomib, Cyclopamine, PARP inhibitor (PJ34)).
(§2) Cells were seeded (numbers vary depending on the cell line) in black 96-well microplate with clear, flat bottom and incubated overnight at 37° C. and 5% CO2. After checking the adherence/confluence of cells, the medium was removed and 100 μl of fresh medium containing the corresponding compound was added to each well. A sequential dilution series (1:4) of 8 concentrations per compound (n=3) were used. Corresponding DMSO concentration and media alone were used as controls.
(§3) After incubation for 3 days at 37° C. and 5% CO2, 100 μl per well CellTiter-Glo reagent (Promega) was added to the plate. Luminescence was measured after 30 minutes agitation at room temperature. IC50-values were calculated with XL-Fit software. Each experiment with one compound was repeated at least twice.
(§4) Cells were seeded (numbers vary depending on the cell line) in black 96-well microplate with clear, flat bottom and incubated overnight at 37° C. and 5% CO2. After checking the adherence/confluence of cells, the medium was removed and 100 μl of fresh medium containing the corresponding compound or combination was added to each well.
(§5) A sequential 1:3 dilution series of 9 concentrations of Drozitumab/anti-human-Fc was done on a 96-well PP-V-bottom microplate (n=6). […] 25 μl/well of the Drozitumab/anti-human-Fc series were then transferred to the cells.
(§6) After incubation for 3 days at 37° C. and 5% CO2 100 μl per well CellTiter-Glo reagent (Promega) were given to the plates. Luminescence was measured after 30 minutes agitation at room temperature.
(§7) For each concentration of Drozitumab/anti-human-Fc and Drozitumab/anti-human-Fc+compound triplicates were done on the same plate and each experiment was repeated at least twice.

SW480 = assay: Combination screen CRC cell lines (CellTiter-Glo); format: cell-based; conditions: for % max. inhibition (mono): first figure of mono/combo; for % max. inhibition (combo): second figure of mono/combo
Method: as §1, §2, §3, §4, §5, §6, §7

HCT116 = assay: Combination screen CRC cell lines (CellTiter-Glo); format: cell-based, human; conditions: for pIC50: 3 days; for % max. inhibition (mono): first figure of mono/combo; for % max. inhibition (combo): second figure of mono/combo
Method: as §1, §2, §3, §4, §5, §6, §7

Aspc1 = assay: Combination screen PDAC cell lines (CellTiter-Glo); format: cell-based; conditions: for pIC50: agent alone, 3 days, read-out: IC50 monotherapy; for % max. inhibition (mono): first figure of mono/combo
Method: as §1, §2, §3, §4, §5, §6, §7

Bxpc3 = assay: Combination screen PDAC cell lines (CellTiter-Glo); format: cell-based; conditions: for pIC50: agent alone, 3 days, read-out: IC50 monotherapy
Method: as §1, §2, §3, §4, §5, §6, §7

Capan2 = assay: Combination screen PDAC cell lines (CellTiter-Glo); format: cell-based; conditions: for % max. inhibition (mono): first figure of mono/combo
Method: as §1, §2, §3, §4, §5, §6, §7

Panc1 = assay: Combination screen PDAC cell lines (CellTiter-Glo); format: cell-based; conditions: for pIC50: 3 days; for % max. inhibition (mono): first figure of mono/combo
Method: as §1, §2, §3, §4, §5, §6, §7

[1] = clinical studies; cited from earlier work
[2] = Homo sapiens, HT-29, 72 h, agent alone, read-out: IC50 monotherapy
[3] = Aspc1, second figure of mono/combo, n.s. = not significant
[4] = Bxpc3, second figure of mono/combo, n.s. = not significant
[5] = Capan2, second figure of mono/combo, n.s. = not significant
[6] = Panc1, second figure of mono/combo, n.s. = not significant
[7] = Bxpc3, first figure of mono/combo
[8] = Homo sapiens, BXPC-3, 72 h, Bxpc3
[9] = Homo sapiens, PANC-1, 72 h, Panc1, agent alone, read-out: IC50 monotherapy
[10] = Homo sapiens, PANC-1, 72 h, Panc1, DR5 ab + Fc titrated in combination with 1x IC50 of the named compound, read-out: IC50 Combo
[11] = DR5 ab + Fc titrated in combination with 1x IC50 of the named compound, read-out: IC50 combo
[12] = agent alone, read-out: IC50 monotherapy

Compound	Fold change IC50 (DR5 ab mono vs combo) (HT29)	Fold change IC50 (DR5 ab mono vs combo) (SW480; n.s. = not significant)	Fold change IC50 (DR5 ab mono vs combo) (Aspc1; Aspc1, n.s. = not significant)	Fold change IC50 (DR5 ab mono vs combo) (Bxpc3; Bxpc3, n.s. = not significant)	Fold change IC50 (DR5 ab mono vs combo) (Panc1; Panc1, n.s. = not significant)	% max. inhibition (combo) (HT29)	% max. inhibition (mono) (SW480) [%]	% max. inhibition (combo) (SW480) [%]	% max. inhibition (mono) (HCT116) [%]	% max. inhibition (combo) (HCT116) [%]	% max. inhibition (combo) (Aspc1; [3])	% max. inhibition (combo) (Bxpc3; [4])	% max. inhibition (mono) (Capan2; Capan2) [%]	% max. inhibition (combo) (Capan2; [5])	% max. inhibition (combo) (Panc1; [6])	also measured
28H1: FAP binder, VH SEQ ID NO. 15 / VL SEQ ID NO. 16, described in WO 2012/020006																Species Cross-Reactivity (FAP): Human, cyno, murine; Binding Mode (FAP; cell wraps r13-r15: No interference with signaling/protease function, conformational epitope): conformational epitope; Specificity (FAP; cell wraps r17-r18: No binding to hu DPP-IV (CD26, closest FAP homologue)): No binding to hu DPP-IV
O=c1[nH]cc(F)c(=O)[nH]1 [5-FU, 5-Fluoro-1H,3H-pyrimidine-2,4-dione]	25	70000				85%	50	65	60	90						pIC50 (HT29; [2]): 5.60; % max. inhibition (mono) (HT29): 50%; pIC50 (SW480; Homo sapiens, 72 h, DR5 ab + Fc titrated in combination with 1x IC50 of the named compound, 3 days, n.s. = not significant, read-out: IC50 combo): 11.70; pIC50 (HCT116; Homo sapiens, HCT-116, 72 h, agent alone, read-out: IC50 monotherapy): 5.60
CC1(C)CCC(CN2CCN(c3ccc(C(=O)NS(=O)(=O)c4ccc(NCC5CCOCC5)c([N+](=O)[O-])c4)c(Oc4cnc5[nH]ccc5c4)c3)CC2)=C(c2ccc(Cl)cc2)C1 [Bcl2i (ABT199), (4-(4-{[2-(4-chlorophenyl)-4,4-dimethylcyclohex-1-en-1-yl]methyl}piperazin-1-yl)-N-({3-nitro-4-[(tetrahydro-2H-pyran-4-ylmethyl)amino]phenyl}sulfonyl)-2-(1H-pyrrolo[2,3-b]pyridin-5-yloxy)benzamide)]	3	n.s.	n.s.	n.s.	n.s.	n.s.	5	30	50	80	n.s.	n.s.	20	60%	n.s.	IC50 combo (SW480; DR5 ab + Fc titrated in combination with 1x IC50 of the named compound, 3 days, n.s. = not significant): n.s.; Fold change IC50 (DR5 ab mono vs combo) (HCT116): 500
CC(C)C[C@H](NC(=O)[C@H](Cc1ccccc1)NC(=O)c1cnccn1)B(O)O [Bortezomib, [(1R)-3-methyl-1-[(2S)-3-phenyl-2-(pyrazin-2-ylformamido)propanamido]butyl]boronic acid]			n.s.	8	n.s.						n.s.	100%	40	95%	n.s.	pIC50 (Aspc1; Homo sapiens, 72 h, Aspc1): 7.52; % max. inhibition (mono) (Bxpc3; [7]): 60%; pIC50 (Bxpc3; [8]): 8.00; pIC50 (Capan2; Homo sapiens, Capan-2, 72 h, Capan2, agent alone, 3 days, read-out: IC50 monotherapy): 7.70; pIC50 (Panc1; [9]): 8.07
CC1=C2C[C@H]3[C@@H](CC=C4C[C@@H](O)CC[C@@]43C)[C@@H]2CC[C@]12O[C@@H]1C[C@H](C)CN[C@H]1[C@H]2C [Cyclopamine, (3β,23R)-17,23-Epoxyveratraman-3-ol]																% max. inhibition (combo) (Aspc1): n.s.; % max. inhibition (combo) (Bxpc3): 65/95%; % max. inhibition (mono) (Bxpc3): 65/95%; % max. inhibition (combo) (Capan2): n.s.; % max. inhibition (combo) (Panc1): n.s.
O=C1[O][Pt]2([NH][C@@H]3CCCC[C@H]3[NH]2)[O]C1=O [Oxaliplatin, [(1R,2R)-cyclohexane-1,2-diamine](ethanedioato-O,O′)platinum(II)]	13	n.s.				90%	60	80	20	90						pIC50 (HT29; [11]): 9.70; pIC50 (HT29; [12]): 5.30; % max. inhibition (mono) (HT29): 30%; Fold change IC50 (DR5 ab mono vs combo) (HCT116): 4; pIC50 (HCT116; [11]): 10.40; pIC50 (HCT116; [12]): 5.30
DR5 ab + Fc: DR5 antibody (drozitumab) + crosslinking via an anti-Fc antibody, surrogate for FAP crosslinking																pIC50 (Aspc1; Aspc1): 8.30; pIC50 (Bxpc3; Bxpc3): 8.52; pIC50 (Panc1; Panc1, agent alone, read-out: IC50 monotherapy): 6.58; pIC50 (HT29; [12]): 8.60; pIC50 (SW480; agent alone, 3 days, read-out: IC50 monotherapy): 6.85; pIC50 (HCT116; [12]): 9.82
Tigatuzumab: humanized DR5 agonistic antibody																maximally tolerated dose (MTD) [1]: up to 8 mg/kg

Continued, in another order:

Fold change IC50 (DR5 ab mono vs combo) (HT29)	Fold change IC50 (DR5 ab mono vs combo) (SW480; n.s. = not significant)	Fold change IC50 (DR5 ab mono vs combo) (Aspc1; Aspc1, n.s. = not significant)	Fold change IC50 (DR5 ab mono vs combo) (Bxpc3; Bxpc3, n.s. = not significant)	Fold change IC50 (DR5 ab mono vs combo) (Panc1; Panc1, n.s. = not significant)	Compound	% max. inhibition (combo) (HT29)	% max. inhibition (mono) (SW480) [%]	% max. inhibition (combo) (SW480) [%]	% max. inhibition (mono) (HCT116) [%]	% max. inhibition (combo) (HCT116) [%]	% max. inhibition (combo) (Aspc1; [3])	% max. inhibition (combo) (Bxpc3; [4])	% max. inhibition (mono) (Capan2; Capan2) [%]	% max. inhibition (combo) (Capan2; [5])	% max. inhibition (combo) (Panc1; [6])	also measured
		50	15	5	Nc1ccn([C@@H]2O[C@H](CO)[C@@H](O)C2(F)F)c(=O)n1 [Gemcitabine, 4-amino-1-(2-deoxy-2,2-difluoro-β-D-erythro-pentofuranosyl)pyrimidin-2(1H)-on]						55%	80%	35	60%	75%	% max. inhibition (mono) (Aspc1; Aspc1): 25%; pIC50 (Aspc1; Homo sapiens, 72 h, Aspc1): 5.70; % max. inhibition (mono) (Bxpc3; [7]): 45%; pIC50 (Bxpc3; [8]): 7.52; pIC50 (Panc1; [10]): 7.28; pIC50 (Panc1; [9]): 5.70; % max. inhibition (mono) (Panc1; Panc1): 50%
83	n.s.				CCc1c2c(nc3ccc(OC(=O)N4CCC(N5CCCCC5)CC4)cc13)-c1cc3c(c(=O)n1C2)COC(=O)[C@]3(O)CC [Irinotecan, (S)-4,11-diethyl-3,4,12,14-tetrahydro-4-hydroxy-3,14-dioxo1H-pyrano[3′,4′:6,7]-indolizino[1,2-b]quinolin-9-yl-[1,4′bipiperidine]-1′-carboxylate]	100%	60	95	60	95						pIC50 (HT29; [2]): 5.05; % max. inhibition (mono) (HT29): 40%
		17	10	n.s.	CN(C)CC(=O)Nc1ccc2[nH]c(=O)c3ccccc3c2c1.Cl [PARPi (PJ34)]						70%	n.s.		n.s.	n.s.	% max. inhibition (mono) (Aspc1; Aspc1): 10%
		31	1	8733	CC(=O)O[C@H]1C(=O)[C@@]2(C)[C@H]([C@H](OC(=O)c3ccccc3)[C@]3(O)C[C@H](OC(=O)[C@H](O)[C@@H](NC(=O)c4ccccc4)c4ccccc4)C(C)=C1C3(C)C)[C@]1(OC(C)=O)CO[C@@H]1C[C@@H]2O [Paclitaxel, 5β,20-Epoxy-1,2α,4,7β,10β,13α-hexahydroxytax-11-en-9-one 4,10-diacetate 2-benzoate 13-ester with (2R,3S)-N-benzoyl-3-phenylisoserine]						75%	100%	50	80%	70%	% max. inhibition (mono) (Aspc1; Aspc1): 30%; % max. inhibition (mono) (Bxpc3; [7]): 80%; pIC50 (Bxpc3; [8]): 6.60; pIC50 (Panc1; [10]): 10.52; pIC50 (Panc1; [9]): 7.82; % max. inhibition (mono) (Panc1; Panc1): 50%
